# Patent publication US20250320206A1, “STAT6 DEGRADERS” (Gilead Sciences, Inc., priority 2024, published 2025)
# Biological target: T1, STAT6 (Homo sapiens, UniProt P42226)
# T1 construct: These cells express endogenous STAT6; host or cells: HeLa LgBiT clone 4.14
# T1 sequence (P42226 1-847): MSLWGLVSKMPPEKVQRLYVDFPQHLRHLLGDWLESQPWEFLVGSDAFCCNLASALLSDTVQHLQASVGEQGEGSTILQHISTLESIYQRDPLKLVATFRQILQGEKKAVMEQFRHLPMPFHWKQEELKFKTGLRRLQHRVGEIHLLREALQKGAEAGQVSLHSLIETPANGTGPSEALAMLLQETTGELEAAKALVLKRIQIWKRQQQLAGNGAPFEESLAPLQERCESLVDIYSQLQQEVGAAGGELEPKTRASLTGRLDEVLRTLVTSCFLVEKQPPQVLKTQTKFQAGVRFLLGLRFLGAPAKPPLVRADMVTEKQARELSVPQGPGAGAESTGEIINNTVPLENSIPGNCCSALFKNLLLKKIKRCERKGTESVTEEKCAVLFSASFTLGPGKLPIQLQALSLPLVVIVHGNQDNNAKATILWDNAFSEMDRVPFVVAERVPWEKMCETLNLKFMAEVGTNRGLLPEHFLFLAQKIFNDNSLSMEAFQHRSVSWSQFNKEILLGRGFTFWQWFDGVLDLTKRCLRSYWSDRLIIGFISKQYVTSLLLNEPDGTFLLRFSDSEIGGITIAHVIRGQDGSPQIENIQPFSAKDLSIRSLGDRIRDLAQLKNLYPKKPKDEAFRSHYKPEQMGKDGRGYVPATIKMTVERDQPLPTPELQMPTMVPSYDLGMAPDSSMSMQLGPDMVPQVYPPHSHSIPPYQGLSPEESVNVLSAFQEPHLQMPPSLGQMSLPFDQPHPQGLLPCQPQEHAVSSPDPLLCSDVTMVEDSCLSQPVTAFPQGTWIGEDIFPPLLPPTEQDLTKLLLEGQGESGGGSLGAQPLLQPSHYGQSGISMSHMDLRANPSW
# Experiment: Stat6 Degrader Assay (HiBiT based, HeLa LgBiT clone 4.14)
# Assay type: cell-based
# Conditions: HeLa LgBiT clone 4.14 HiBiT-STAT6, 4-24 h incubation; read-out: STAT6 degradation Emax
# Procedure: This was a HiBit based assay. A HeLa cell line stably transfected with a small protein, LgBit (Large Bit) was obtained from Promega. These cells express endogenous STAT6. A small 11 amino acid gene sequence (HiBiT) was inserted in the STAT6 gene using CRISPR technology. Once STAT6 protein is expressed in the cells, the HiBiT sequence will bind the LgBit in the cells resulting in a functional NanoBiT protein, giving a luminescent tag to STAT6, see FIG. 2.
# Single cell clones were prepared and the clone 4.14 was selected for the assay based on that clone showing high luminescence, high STAT6 phosphorylation upon stimulation with IL-4, and inhibition of luminescence when cells were treated with STAT6 siRNA.
# HeLa LgBiT clone 4.14 cells were suspended in DMEM with 10% FCS, 1% Pen/Strep, Na-pyrovate and Hygromycin B, at a concentration of 1.25*105 cells pr mL. 5000 cells were added pr well of a 384 well plate and 20 nL of compound was added by Echo® liquid handler. NN6394A (terfenadine, a toxic compound) was added to control wells at 50 μM concentration to establish the assay window. In these wells the cells are dead which equals 100% degradation of STAT6.
# After 4-24 h of incubation at 37° C. under 5% CO2/95% air, 5 μL substrate (Nano-GLO®) was added to the wells and the plates were centrifuged and incubated for 0.5 h.
# The luminescence in the wells as a measure of non-degraded STAT6 was measured in a plate reader (BMG Pherastar FSX).
# The dose-response curves for Examples 3u208, 3u246, 3u118, 3u119, 3u120, and 3u74 are shown in FIG. 1 (where percent degradation is plotted vs. test compound concentration in M on a log-scale).
row,Emax,Structure (SMILES)
1,30 to 40%,"CNc1ccn(-c2ccnc3c2cc(CN2CCC(c4c(F)cc(C(=O)N5CCC(CN6CCN(c7ccc8c(c7)C7(CC7)C(=O)N8[C@H]7CCC(=O)NC7=O)CC6)CC5)cc4F)CC2)n3C)c(=O)c1 (single isomer, unassigned) [Example 3u151]"

# Same assay, conditions: HeLa LgBiT clone 4.14 HiBiT-STAT6, 4-24 h incubation; values given for compounds with >80% Emax; geometric mean; read-out: STAT6 degradation DC50
row,Structure (SMILES),DC50
1,"CNc1ccn(-c2ccnc3c2cc(CN2CC=C(c4c(F)cc(C(=O)N5CCC(CN6CCN(Cc7ccc8c(c7)n(C)c(=O)n8[C@H]7CCC(=O)NC7=O)C[C@@H]6C)CC5)cc4F)CC2)n3C)c(=O)c1 (single isomer, unassigned) [Example 3u2]",4.3 nM
2,"CNc1ccn(-c2ccnc3c2cc(CN2CC=C(c4c(F)cc(C(=O)N5CCC(CN6CCN(Cc7ccc8c(c7)n(C)c(=O)n8[C@@H]7CCC(=O)NC7=O)C[C@@H]6C)CC5)cc4F)CC2)n3C)c(=O)c1 (single isomer, unassigned) [Example 3u3]",1.8 nM
3,"CNc1ccn(-c2ccnc3c2cc([C@H](C)N2CCC(c4ccc(C(=O)N5CCC(CN6CCN(Cc7ccc8c(c7)C7(CC7)C(=O)N8[C@@H]7CCC(=O)NC7=O)C[C@@H]6C)CC5)cc4)CC2)n3C)c(=O)c1 (single isomer, unassigned) [Example 3u7]",0.6 nM
4,"Cc1cc(C(=O)N2CCC(CN3CCN(Cc4ccc5c(c4)n(C)c(=O)n5[C@H]4CCC(=O)NC4=O)C[C@@H]3C)CC2)cc(F)c1C1=CCN(Cc2cc3c(-n4ccc5c(c4=O)CCN5)ccnc3n2C)CC1 (single isomer, unassigned) [Example 3u24]",1.2 nM
5,"CNc1ccn(-c2ccnc3c2cc([C@H](C)N2CC=C(c4c(C)cc(C(=O)N5CCC(CN6CCN(Cc7ccc8c(c7)n(C)c(=O)n8[C@@H]7CCC(=O)NC7=O)C[C@@H]6C)CC5)cc4F)CC2)n3C)c(=O)c1 (single isomer, unassigned) [Example 3u34]",0.3 nM
6,"Cc1cc(C(=O)N2CCC(CN3CCN(Cc4ccc5c(c4)n(C)c(=O)n5[C@@H]4CCC(=O)NC4=O)C[C@@H]3C)CC2)cc(F)c1C1CCN(Cc2cc3c(-n4ccc5c(c4=O)CCN5)ccnc3n2C)CC1 (single isomer, unassigned) [Example 3u40]",2.3 nM
7,"Cc1cc(C(=O)N2CCC(CN3CCN(Cc4ccc5c(c4)n(C)c(=O)n5[C@H]4CCC(=O)NC4=O)C[C@@H]3C)CC2)cc(F)c1C1CCN(Cc2cc3c(-n4ccc5c(c4=O)CCN5)ccnc3n2C)CC1 (single isomer, unassigned) [Example 3u41]",6 nM
8,"CNc1ccn(-c2ccnc3c2cc([C@H](C)N2CCC(c4c(F)cc(C(=O)N5CCC(CN6CCN(Cc7ccc8c(c7)C(C)(C)C(=O)N8[C@H]7CCC(=O)NC7=O)C[C@@H]6C)CC5)cc4F)CC2)n3C)c(=O)c1 (single isomer, unassigned) [Example 3u81]",0.8 nM
9,"Cc1cc(C(=O)N2CCC(CN3CCN(Cc4cc5c(cc4F)n([C@H]4CCC(=O)NC4=O)c(=O)n5C4CC4)C[C@@H]3C)CC2)cc(F)c1C1=CCN([C@@H](C)c2cc3c(-n4ccc5c(c4=O)CCN5)ccnc3n2C)CC1 (single isomer, unassigned) [Example 3u132]",0.5 nM
10,"Cc1cc(C(=O)N2CCC(CN3CCN(Cc4ccc5c(c4)n(C)c(=O)n5[C@@H]4CCC(=O)NC4=O)C[C@@H]3C)CC2)cc(F)c1C1=CCN([C@@H](C)c2cc3c(-n4ccc5c(c4=O)CCN5)ccnc3n2C)CC1 (single isomer, unassigned) [Example 3u139]",0.2 nM
11,"Cc1cc(C(=O)N2CCC(CN3CCN(Cc4ccc5c(c4)n(C4CC4)c(=O)n5[C@H]4CCC(=O)NC4=O)CC3)CC2)cc(F)c1C1=CCN([C@@H](C)c2cc3c(-n4ccc5c(c4=O)CCN5)ccnc3n2C)CC1 (single isomer, unassigned) [Example 3u142]",2.4 nM
12,"Cc1cc(C(=O)N2CCC(CN3CCN(Cc4ccc5c(c4)n(C4CC4)c(=O)n5[C@@H]4CCC(=O)NC4=O)C[C@@H]3C)CC2)cc(F)c1C1=CCN([C@@H](C)c2cc3c(-n4ccc5c(c4=O)CCN5)ccnc3n2C)CC1 (single isomer, unassigned) [Example 3u144]",0.4 nM
13,"Cc1cc(C(=O)N2CCC(CN3CCN(Cc4ccc5c(c4)n(C4CC4)c(=O)n5[C@H]4CCC(=O)NC4=O)C[C@@H]3C)CC2)cc(F)c1C1=CCN([C@@H](C)c2cc3c(-n4ccc5c(c4=O)CCN5)ccnc3n2C)CC1 (single isomer, unassigned) [Example 3u145]",2 nM

# More lines, now with the values ahead:
row,DC50,Structure (SMILES)
1,0.9 nM,"CNc1ccn(-c2ccnc3c2cc([C@H](C)N2CC=C(c4c(C)cc(C(=O)N5CCC(CN6CCN(Cc7cc8c(cc7F)n([C@H]7CCC(=O)NC7=O)c(=O)n8C7CC7)CC6)CC5)cc4F)CC2)n3C)c(=O)c1 (single isomer, unassigned) [Example 3u104]"
2,1.4 nM,"CNc1ccn(-c2ccnc3c2cc([C@H](C)N2CC=C(c4c(C)cc(C(=O)N5CCC(CN6CCN(Cc7cc8c(cc7F)n([C@@H]7CCC(=O)NC7=O)c(=O)n8C7CC7)CC6)CC5)cc4F)CC2)n3C)c(=O)c1 (single isomer, unassigned) [Example 3u105]"
3,0.5 nM,"CNc1ccn(-c2ccnc3c2cc([C@H](C)N2CC=C(c4c(C)cc(C(=O)N5CCC(CN6CCN(Cc7ccc8c(c7)n(C7CC7)c(=O)n8[C@H]7CCC(=O)NC7=O)C[C@@H]6C)CC5)cc4F)CC2)n3C)c(=O)c1 (single isomer, unassigned) [Example 3u112]"
4,0.6 nM,"CNc1ccn(-c2ccnc3c2cc([C@H](C)N2CC=C(c4c(C)cc(C(=O)N5CCC(CN6CCN(Cc7ccc8c(c7)n(C7CC7)c(=O)n8[C@@H]7CCC(=O)NC7=O)C[C@@H]6C)CC5)cc4F)CC2)n3C)c(=O)c1 (single isomer, unassigned) [Example 3u113]"
5,0.9 nM,"CNc1ccn(-c2ccnc3c2cc([C@H](C)N2CC=C(c4c(C)cc(C(=O)N5CCC(CN6CCN(Cc7ccc8c(c7)n(C7CC7)c(=O)n8[C@H]7CCC(=O)NC7=O)CC6)CC5)cc4F)CC2)n3C)c(=O)c1 (single isomer, unassigned) [Example 3u123]"
6,0.8 nM,"Cc1cc(C(=O)N2CCC(CN3CCN(Cc4cc5c(cc4F)n([C@@H]4CCC(=O)NC4=O)c(=O)n5C4CC4)C[C@@H]3C)CC2)cc(F)c1C1=CCN([C@@H](C)c2cc3c(-n4ccc5c(c4=O)CCN5)ccnc3n2C)CC1 (single isomer, unassigned) [Example 3u133]"
7,1.6 nM,"Cc1cc(C(=O)N2CCC(CN3CCN(Cc4cc5c(cc4F)n([C@H]4CCC(=O)NC4=O)c(=O)n5C4CC4)CC3)CC2)cc(F)c1C1=CCN([C@@H](C)c2cc3c(-n4ccc5c(c4=O)CCN5)ccnc3n2C)CC1 (single isomer, unassigned) [Example 3u147]"
8,2.7 nM,"Cc1cc(C(=O)N2CCC(CN3CCN(Cc4cc5c(cc4F)n([C@@H]4CCC(=O)NC4=O)c(=O)n5C4CC4)CC3)CC2)cc(F)c1C1=CCN([C@@H](C)c2cc3c(-n4ccc5c(c4=O)CCN5)ccnc3n2C)CC1 (single isomer, unassigned) [Example 3u148]"
9,0.6 nM,"CNc1ccn(-c2ccnc3c2cc([C@H](C)N2CC=C(c4c(C)cc(C(=O)N5CCC(CN6CCN(Cc7ccc8c(c7)n(C)c(=O)n8[C@H]7CCC(=O)NC7=O)CC6)CC5)cc4F)CC2)n3C)c(=O)c1 (single isomer, unassigned) [Example 3u156]"
10,0.8 nM,"CNc1ccn(-c2cccc3c2cc([C@H](C)N2CC=C(c4c(C)cc(C(=O)N5CCC(CN6CCN(Cc7cc8c(cc7F)n([C@H]7CCC(=O)NC7=O)c(=O)n8C7CC7)C[C@@H]6C)CC5)cc4F)CC2)n3C)c(=O)c1 (single isomer, unassigned) [Example 3u167]"
11,2.1 nM,"CNc1ccn(-c2ccnc3c2cc([C@H](C)N2CC=C(c4c(C)cc(C(=O)N5CCC(CN6CCN(Cc7cc8c(cc7F)n([C@@H]7CCC(=O)NC7=O)c(=O)n8C7CC7)C[C@@H]6C)CC5)cc4F)CC2)n3C)c(=O)c1 (single isomer, unassigned) [Example 3u168]"
